In patent US11466047B2, “Cyclic di-nucleotide compounds as sting agonists” (Merck Sharp & Dohme Corp., priority 2017, dated 2022):
Like-named read-outs stand apart in the source and are kept apart here.

Legend:
full-length WT STING = full-length WT STING (Homo sapiens (Human), UniProt Q86WV6, H232R); experiment: 3H-cGAMP filtration binding assay (WT STING); settings: WT STING membrane
Method: The ability of compounds to bind STING is quantified by their ability to compete with tritiated cGAMP ligand for human STING receptor membrane using a radioactive filter-binding assay. The binding assay employs STING receptor obtained from Trichoplusia ni cell membranes (T.ni; Expression Systems, cat #94-002F, overexpressing full-length WT STING and tritiated cGAMP ligand.
The basic WT STING filtration assay protocol is as follows:
16 nM of [^3H] c-GAMP ligand was prepared by diluting into assay buffer, and 50 uL of this working stock was manually added to each well of the assay plate. After ligand addition, 2 uL of either titrated test compound, DMSO control (Sigma #276855), or cold cGAMP control was added to the appropriate wells using a BIOMEK FX. The serially titrated compound was prepared on a Hamilton STARPlus CORE in a 96-well plate (Greiner, #651201) using a 1:3 ten-point dose response format. Following compound addition, a 2.2 ug/ml working concentration of STING membrane (SEQ. ID. No. 3) was prepared by diluting concentrated membrane into assay buffer (1×PBS; Invitrogen #SH30028.02) and douncing 7× using a manual tissue homogenizer (Wheaton, #357546). 148 uL of this prepared membrane was then manually added to each well of a 96-well deep-well polypropylene plate (Fisher Scientific, #12-566-121). Compound, ligand, and membrane then incubated for 60 min at RT before the contents of each assay plate were filtered through a 96-well GF/B filter plate (PerkinElmer, #6005250) using a TOMTEC MACH III Cell Harvester equipped with 20 mM HEPES buffer (Fisher Scientific, #BP299500). The filter plates were then dried at 55° C. for 30 min using a pressurized VWR oven before 30 uL of ULTIMA GOLD F scintillate was added to each well. Tritium levels for each reaction well were then measured using a PerkinElmer TopCount plate reader.
After normalization to controls, the percent activity for each compound concentration was calculated by measuring the amount of remaining radioactivity. The plot of percent activity versus the log of compound concentration was fit with a 4-parameter dose response equation to calculate EC50 values.

THP1 cells = experiment: IFN-β secretion in THP1 cell culture (5 h); format: cell-based, human; settings: 30 μM compound, relative to 2′3′-cGAMP at 30 μM; for activation at 30 µM: Homo sapiens, THP-1, 5 h, read-out: % Effect at 30 μM relative to 2′3′-cGAMP
Method: The ability of compounds to stimulate the secretion of interferon-beta from THP1 cells was measured using a human IFN-β AlphaLISA kit (Perkin Elmer, Cat. No. AL265F). The basic protocol is as follows:
A Labcyte Echo 550 acoustic dispenser was used to transfer 120 nL of compound dissolved in DMSO into the wells of an empty, sterile 384-well microplate, (Corning, Cat. No. 3712). THP1 cells (American Type Culture Collection, Cat. No. TIB202) previously frozen in Recovery Medium (Life Technologies, Cat. No. 12648-010) were thawed and immediately diluted 10-fold into 37° C. assay medium (RPMI 1640+L-Glutamine & phenol red, Life Technologies, Cat. No. 11875-085; 0.5% heat inactivated fetal bovine serum, Sigma Aldrich, Cat. No. F4135; 1 mM Sodium Pyruvate, Life Technologies, Cat. No. 11360-070; lx non-essential amino acids; Life Technologies, Cat. No. 11140-050). The cell viability and count was ascertained using a Beckman Coulter V-Cell XR cell counter. The cell suspension was centrifuged at 200×g for 5 min at RT. Cells were resuspended to a density of 0.8×10^6/mL in 37° C. assay medium. Subsequent liquid transfers were performed using either a Matrix electronic multichannel pipette or an Agilent Bravo Automated Liquid Handling Platform.
The assay was started by dispensing 40 μL of the previously prepared cell suspension into the wells of the plate containing compounds. After 5 h incubation at 37° C., 5% CO2 in a humidified atmosphere, the plate of cells and compounds was centrifuged at 200×g for 5 min at RT. From each well, 5 μL of supernatant was transferred into corresponding wells of a white 384-well plate (Perkin Elmer, Cat. No. 6005620). To these supernatant-containing wells was added 10 μL of 5× Anti-Analyte Acceptor beads (50 μg/mL of AlphaLISA HiBlock Buffer) and incubated for 30 min at RT while shaking on an orbital plate shaker. To each well was added 10 μL of 5× Biotinylated Antibody Anti-analyte (5 nM in AlphaLISA HiBlock Buffer) and incubated on an orbital plate shaker for 60 min at RT or overnight at 4° C. To each well was added 25 μL of 2×SA-Donor beads (80 μg/mL in AlphaLISA HiBlock Buffer) and incubated for 30-45 min at RT in the dark while shaking on an orbital plate shaker. The plate was then read on a Perkin Elmer Envision (λex=680 nm, λem=570 nm). The percent effect of the AlphaLISA signal at each compound concentration was calculated based on 30 uM cGAMP positive controls and 0.3% DMSO negative controls. The plot of percent effect versus the log of compound concentration was fit with a 4-parameter concentration response equation to calculate EC50 values. The test compounds were tested at concentrations 30000, 10000, 3333, 1111, 370.4, 123.4, 41.2, 13.7, 4.6, and 1.5 nM with 0.3% residual DMSO. The control compound, cGAMP was tested at concentrations 100000, 33333, 11111, 3704, 1235, 412, 137, 46, and 15 nM with 0.3% residual DMSO.
Compounds of the disclosure were evaluated for IFN-β secretion in THP1 cell culture as described above. The following table tabulates the biological data for these compounds as percent activation relative to 2′3′-cGAMP at the 30 μM concentration.

[1] = competition with tritiated cGAMP ligand, read-out: EC50
[2] = EC50, competition with tritiated cGAMP ligand

Sequence of full-length WT STING (Q86WV6 whole entry, looked up, stated change not applied): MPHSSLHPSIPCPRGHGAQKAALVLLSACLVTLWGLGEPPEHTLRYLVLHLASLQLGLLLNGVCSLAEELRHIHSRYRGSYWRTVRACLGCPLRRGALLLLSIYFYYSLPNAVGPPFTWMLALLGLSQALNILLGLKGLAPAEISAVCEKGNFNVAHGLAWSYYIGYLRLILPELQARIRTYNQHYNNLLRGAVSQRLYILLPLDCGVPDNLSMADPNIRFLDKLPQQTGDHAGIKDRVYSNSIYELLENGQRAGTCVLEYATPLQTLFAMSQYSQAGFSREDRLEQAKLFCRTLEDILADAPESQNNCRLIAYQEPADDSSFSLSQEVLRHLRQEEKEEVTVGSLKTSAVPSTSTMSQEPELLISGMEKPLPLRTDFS

SMILES	EC50 (full-length WT STING; [1]) [nM]	% Effect at 30 μM relative to 2′3′-cGAMP (THP1 cells) [%]	EC50 (full-length WT STING; [2]) [nM]	activation at 30 µM (THP1 cells) [%]
Nc1nc2c(ncn2[C@@H]2O[C@@H]3COP(=S)(S)O[C@H]4C[C@H](n5cnc6c(N)ncnc65)O[C@@H]4COP(O)(=S)O[C@@H]2C3)c(=O)[nH]1 (single isomer, unassigned) [Example 4]	< 1	146	–	–
Nc1nc2c(ncn2[C@@H]2O[C@@H]3COP(O)(=S)O[C@H]4C[C@H](n5cnc6c(N)ncnc65)O[C@@H]4COP(=S)(S)O[C@@H]2C3)c(=O)[nH]1 (single isomer, unassigned) [Example 10]	–	91	6	–
Nc1nc2c(ncn2[C@@H]2O[C@@H]3COP(O)(=S)O[C@H]4C[C@H](n5cnc6c(N)ncnc65)O[C@@H]4COP(=S)(S)O[C@@H]2C3)c(=O)[nH]1 (single isomer, unassigned) [Example 11]	–	51	34	–
Nc1nc2c(ncn2[C@@H]2O[C@@H]3COP(O)(=S)O[C@H]4[C@H](F)[C@H](n5cnc6c(N)ncnc65)O[C@@H]4COP(=S)(S)O[C@@H]2[C@@H]3F)c(=O)[nH]1 (single isomer, unassigned) [Example 12]	171	116	–	–
Nc1nc2c(ncn2[C@@H]2O[C@@H]3COP(O)(=S)O[C@H]4[C@H](F)[C@H](n5cnc6c(N)ncnc65)O[C@@H]4COP(=S)(S)O[C@@H]2[C@@H]3F)c(=O)[nH]1 (single isomer, unassigned) [Example 13]	223	95	–	–
Nc1nc2c(ncn2[C@@H]2O[C@@H]3COP(O)(=S)O[C@H]4C[C@H](n5ccc6c(N)ncnc65)O[C@@H]4COP(=S)(S)O[C@@H]2C3)c(=O)[nH]1 (single isomer, unassigned) [Example 14]	244	–	–	422
Nc1nc2c(ncn2[C@@H]2O[C@@H]3COP(O)(=S)O[C@H]4[C@H]5OC[C@]4(COP(=S)(S)O[C@@H]2[C@H]3F)O[C@H]5n2cnc3c(N)ncnc32)c(=O)[nH]1 (single isomer, unassigned) [Example 15]	79	–	–	357
Nc1nc2c(ncn2[C@@H]2O[C@@H]3COP(=S)(S)O[C@H]4C[C@H](n5cnc6c(=O)[nH]cnc65)O[C@@H]4COP(O)(=S)O[C@@H]2C3)c(=O)[nH]1 (single isomer, unassigned) [Example 24]	19	168	–	–
Nc1nc2c(ncn2[C@@H]2O[C@@H]3COP(=S)(S)O[C@H]4C[C@H](n5cnc6c(=O)[nH]cnc65)O[C@@H]4COP(O)(=S)O[C@@H]2C3)c(=O)[nH]1 (single isomer, unassigned) [Example 25]	2	281	–	–
Nc1nc2c(ncn2[C@@H]2O[C@@H]3COP(=S)(S)O[C@H]4C[C@H](n5cnc6c(N)ncnc65)O[C@@H]4COP(=O)(O)O[C@@H]2C3)c(=O)[nH]1 (stereo partly drawn) [Example 18, 2-amino-9-[(5S,7R,8R,12aR,14R,15aS)-14-(6-amino-9H-purin-9-yl)-10-hydroxy-10-oxido-2-sulfanyl-2-sulfidooctahydro-12H-5,8-methanofuro[3,2-1][1,3,6,9,11,2,10]pentaoxadiphosphacyclotetradecin-7-yl]-1,9-dihydro-6H-purin-6-one]	1	–	–	153
Nc1nc2c(ncn2[C@@H]2O[C@@H]3COP(=S)(S)O[C@H]4[C@H](F)[C@H](n5cnc6c(N)ncnc65)O[C@@H]4COP(=O)(O)O[C@@H]2[C@@H]3F)c(=O)[nH]1 (stereo partly drawn) [Example 19, 2-amino-9-[(5R,7R,8S,12aR,14R,15S, 15aR,16R)-14-(6-amino-9H-purin-9-yl)-15,16-difluoro-10-hydroxy-10-oxido-2-sulfanyl-2-sulfidooctahydro-12H-5,8-methanofuro[3,2-1][1,3,6,9,11,2,10]pentaoxadiphosphacyclotetradecin-7-yl]-1,9-dihydro-6H-purin-6-one]	1	–	–	250
Nc1nc2c(ncn2[C@@H]2O[C@@H]3COP(=O)(O)O[C@H]4[C@H](F)[C@H](n5cnc6c(N)ncnc65)O[C@@H]4COP(=S)(S)O[C@@H]2[C@@H]3F)c(=O)[nH]1 (stereo partly drawn) [Example 22, 2-amino-9-[(5R,7R,8S,12aR,14R,15S,15aR,16R)-14-(6-amino-9H-purin-9-yl)-15,16-difluoro-2-hydroxy-2-oxido-10-sulfanyl-10-sulfidooctahydro-12H-5,8-methanofuro[3,2-l][1,3,6,9,11,2,10]pentaoxadiphosphacyclotetradecin-7-yl]-1,9-dihydro-6H-purin-6-one]	–	–	517	117
Nc1nc2c(ncn2[C@@H]2O[C@@H]3COP(=O)(O)O[C@H]4C[C@H](n5cnc6c(N)ncnc65)O[C@@H]4COP(=S)(S)O[C@@H]2C3)c(=O)[nH]1 (stereo partly drawn) [Example 23, 2-amino-9-[(5S,7R,8R,12aR,14R,15aS)-14-(6-amino-9H-purin-9-yl)-2-hydroxy-2-oxido-10-sulfanyl-10-sulfidooctahydro-12H-5,8-methanofuro[3,2-1] [1,3,6,9,11,2,10]pentaoxadiphosphacyclotetradecin-7-yl]-1,9-dihydro-6H-purin-6-one]	69	–	–	152
Nc1nc2c(ncn2[C@@H]2O[C@@H]3COP(=S)(S)O[C@H]4[C@H](F)[C@H](n5cnc6c(=O)[nH]cnc65)O[C@@H]4COP(O)(=S)O[C@@H]2[C@@H]3F)c(=O)[nH]1 (stereo partly drawn) [Example 27, 2-amino-9-[(5R,7R,8S,12aR,14R,15S,15aR,16R)-15,16-difluoro-10-hydroxy-14-(6-oxo-1,6-dihydro-9H-purin-9-yl)-2-sulfanyl-2,10-disulfidooctahydro-12H-5,8-methanofuro[3,2-1][1,3,6,9,11,2,10]pentaoxadiphosphacyclotetradecin-7-yl]-1,9-dihydro-6H-purin-6-one]	–	–	–	164
